Measured values taken from PubChem BioAssay (NCI).
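Assay format: 96-well plates, 48-hour exposure. TGI denotes the concentration required for complete inhibition of growth.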

Assays:
Test in all cases: NCI-60 cell line screen, 48 h
TK-10 renal = test system: TK-10 renal
DLD-1 colon = test system: DLD-1 colon
DMS 273 small cell lung = test system: DMS 273 small cell lung
HOP-18 NSCLC = test system: HOP-18 NSCLC
RXF-631 renal = test system: RXF-631 renal
SNB-78 CNS = test system: SNB-78 CNS
LXFL 529 NSCLC = test system: LXFL 529 NSCLC
XF 498 CNS = test system: XF 498 CNS
A498 renal = test system: A498 renal
KM20L2 colon = test system: KM20L2 colon
M19-MEL melanoma = test system: M19-MEL melanoma
DMS 114 small cell lung = test system: DMS 114 small cell lung

SMILES | TGI (TK-10 renal) [µM] | TGI (DLD-1 colon) [µM] | TGI (DMS 273 small cell lung) [µM] | TGI (HOP-18 NSCLC) [µM] | TGI (RXF-631 renal) [µM] | TGI (SNB-78 CNS) [µM] | TGI (LXFL 529 NSCLC) [µM] | TGI (XF 498 CNS) [µM] | TGI (A498 renal) [µM] | TGI (KM20L2 colon) [µM] | TGI (M19-MEL melanoma) [µM] | TGI (DMS 114 small cell lung) [µM]
CC(=O)NC(Cc1ccccc1)C(=S)N1CCCC1 (centres undefined) | > 100 | > 100 | > 100 | > 100 | > 100 | > 100 | > 100 | > 100 | > 100 | > 100 | > 100 | > 100
CN(C)CCCNc1ccc2nnn3c4ccc([N+](=O)[O-])cc4c(=O)c1c23 | 7.95 | 14.4 | 6.89 | 13.6 | 7.59 | 16 | 15 | 11.4 | 6.33 | 9.69 | 16.2 | 14.1
